Experimental data published in ChEMBL document CHEMBL2010731, “Discovery of P2X3 selective antagonists for the treatment of chronic pain” (Bioorg Med Chem Lett, 2012).

What was measured:
[1] = Intrinsic clearance in human liver microsomes at 1 uM; format: ADME, Microsome; settings: read-out: CLH
[2] = Apparent permeability from apical to basal side of human Caco2 cells at 10 uM; format: ADME, cell-based; settings: Caco-2
[3] = Half life in rat at 11 umol/kg, iv; format: ADME, organism-based; settings: in vivo
[4] = Clearance in rat at […], iv; format: ADME, organism-based; settings: in vivo
[5] = Drug excretion in iv dosed rat faces; format: ADME, organism-based, Feces; settings: faeces, read-out: Drug excretion
[6] = Oral bioavailability in rat at 12 umol/kg; format: ADME, organism-based; settings: in vivo
[7] = Cmax in rat at 58 umol/kg, po; format: ADME, organism-based; design: dose 58 umol/kg, route oral; settings: in vivo
[8] = Intrinsic clearance in rat liver microsomes; format: ADME, Microsome; settings: read-out: CLH
[9] = Oral bioavailability in rat at 58 umol/kg; format: ADME, organism-based; settings: in vivo
[10] = Lipophilicity, log D of the compound at pH 7.4; format: physicochemical; settings: buffer
[11] = AUC in rat at 58 umol/kg, po; format: ADME, organism-based; settings: plasma
[12] = Drug excretion in rat faces at high dose, iv; format: ADME, Feces; settings: faeces, read-out: Drug excretion
[13] = Half life in dog at […], iv; format: ADME, organism-based, Canis lupus familiaris; settings: in vivo
[14] = AUC in rat at […], iv; format: ADME, organism-based; settings: plasma
[15] = Cmax in rat at 12 umol/kg, po; format: ADME, organism-based; design: dose 12 umol/kg, route oral; settings: in vivo
[16] = Clearance in dog at […], iv; format: ADME, organism-based, Canis lupus familiaris; settings: in vivo
[17] = Clearance in rat at 11 umol/kg, iv; format: ADME, organism-based; settings: in vivo
[18] = AUC in rat at 11 umol/kg, iv; format: ADME, organism-based; settings: plasma
[19] = AUC in dog at […], iv; format: ADME, organism-based, Canis lupus familiaris; settings: plasma
[20] = AUC in rat at 12 umol/kg, po; format: ADME, organism-based; settings: plasma
[21] = Half life in rat at […], iv; format: ADME, organism-based; settings: in vivo
[22] = Clearance in dog hepatocytes assessed per 10^6 cells; format: ADME, cell-based, Canis lupus familiaris, Hepatocyte; settings: read-out: CLH
[23] = AUC in rat at […], sc; format: ADME, organism-based; settings: plasma
[24] = Cmax in rat at […], sc; format: ADME, organism-based; design: dose 5.9 umol/kg, route subcutaneous; settings: in vivo
[25] = Ratio of drug level in brain to plasma in Sprague-Dawley rat; format: ADME; settings: read-out: BPR

`COc1ccc([C@@H](C)Nc2nc(N3CCN(C(C)=O)CC3)nc3c2CN(C(C)C)C3=O)cc1` gave a microsomal CLint at 1 µM [1] of 4 µL/min/mg.
With `CC(=O)N1CCN(c2nc(NCc3ccc(Cl)cc3)c3c(n2)C(=O)N(C(C)C)C3)CC1` the microsomal CLint at 1 µM [1] was 6 µL/min/mg.
`COc1cc(OC(F)(F)F)ccc1CNc1nc(N2CCN(C(C)=O)CC2)nc2c1CN(C(C)C)C2=O` gave a microsomal CLint at 1 µM [1] of 31 µL/min/mg.
`CC(=O)N1CCN(c2nc(NCc3cc4ccccc4cn3)c3c(n2)C(=O)N(C(C)C)C3)CC1` showed a microsomal CLint at 1 µM [1] of 16 µL/min/mg and a Papp A→B at 10 µM [2] of 0.6 ×10⁻⁶ cm/s.
`CC(=O)N1CCN(c2nc(NCc3cnc4ccccc4c3)c3c(n2)C(=O)N(C(C)C)C3)CC1` showed a microsomal CLint at 1 µM [1] of 11 µL/min/mg and a Papp A→B at 10 µM [2] of 0.1 ×10⁻⁶ cm/s.
`CCOc1ccc([C@H](Nc2nc(N3CCN(C(C)=O)CC3)nc3c2CN(C(C)C)C3=O)C(F)(F)F)cc1` gave a microsomal CLint at 1 µM [1] of 5 µL/min/mg and a Papp A→B at 10 µM [2] of 2 ×10⁻⁶ cm/s.
In the case of `CCOc1ccc([C@@H](C)Nc2nc(N3CCN(C(C)=O)CC3)nc3c2CN(C(C)C)C3=O)cc1`, the half-life [3] is reported as 2 h, the clearance [4] is reported as 88 mL/min/kg and the dose excreted [5] is reported as greater than 15%. The bioavailability [6] was 16%, the Cmax [7] was 6900 nM and the microsomal CLint [8] was 17 µL/min/mg. It also gave a bioavailability [9] of 62%, a microsomal CLint at 1 µM [1] of 10 µL/min/mg and a logD [10] of 3. The AUC [11] was 1.8 µM·h, the dose excreted [12] was less than 3% and the half-life [13] was 14.5 h. The AUC [14] was 0.4 µM·h, the Papp A→B at 10 µM [2] was 2.4 ×10⁻⁶ cm/s and the Cmax [15] was 100 nM. It also gave a clearance [16] of 8 mL/min/kg, a clearance [17] of 22 mL/min/kg and an AUC [18] of 8.05 µM·h. It also gave an AUC [19] of 4.8 µM·h, an AUC [20] of 0.4 µM·h and a half-life [21] of 0.5 h. The hepatocyte CLint [22] was 2.5 µL/min/1e6 cells.
`CC(=O)N1CCN(c2nc(NCc3ccc(C(F)(F)F)cc3)c3c(n2)C(=O)N(C(C)C)C3)CC1` gave a microsomal CLint at 1 µM [1] of 31 µL/min/mg.
With `CC(=O)N1CCN(c2nc3c(c(N(C)Cc4cc5ccccc5cn4)n2)CN(C(C)C)C3=O)CC1` the microsomal CLint at 1 µM [1] was 19 µL/min/mg and the Papp A→B at 10 µM [2] was 2.9 ×10⁻⁶ cm/s.
`CC(=O)N1CCN(c2nc(NCc3ccc(OC(F)(F)F)cc3)c3c(n2)C(=O)N(C(C)C)C3)CC1` gave a microsomal CLint at 1 µM [1] of 4 µL/min/mg and a Papp A→B at 10 µM [2] of 2.9 ×10⁻⁶ cm/s.
For `CCOc1ccc([C@@H](C)Nc2nc(N3CCN(C(C)=O)CC3)nc3c2CN(C(C)C)C3=O)cc1F`, the microsomal CLint at 1 µM [1] was 17 µL/min/mg and the Papp A→B at 10 µM [2] was 0.8 ×10⁻⁶ cm/s.
With `CC(=O)N1CCN(c2nc(N[C@H](C)c3ccc(OC(F)(F)F)cc3)c3c(n2)C(=O)N(C(C)C)C3)CC1` the microsomal CLint at 1 µM [1] was 22 µL/min/mg and the Papp A→B at 10 µM [2] was 4.5 ×10⁻⁶ cm/s.
For `CC(=O)N1CCN(c2nc(NC(C)(C)Cc3ccc(Cl)cc3)c3c(n2)C(=O)N(C(C)C)C3)CC1`, the clearance [4] was 54 mL/min/kg, the AUC [23] was 2.8 µM·h and the Cmax [24] was 1000 nM. For the same compound, the microsomal CLint [8] was 83 µL/min/mg, the AUC [14] was 0.7 µM·h and the Kp [25] was 0.02. It also gave a half-life [21] of 0.9 h.
Compound `CCOc1ncc([C@@H](C)Nc2nc(N3CCN(C(C)=O)CC3)nc3c2CN(C(C)C)C3=O)cc1F` has a microsomal CLint at 1 µM [1] of 7 µL/min/mg.
In the case of `CCOc1ccc([C@@H](CC)Nc2nc(N3CCN(C(C)=O)CC3)nc3c2CN(C(C)C)C3=O)cc1`, the microsomal CLint [8] is reported as 58 µL/min/mg and the microsomal CLint at 1 µM [1] is reported as 10 µL/min/mg.
In the case of `CC(C)N1Cc2c(NC(c3ccccc3)c3ccccc3)nc(N3CCOCC3)nc2C1=O`, the logD [10] is reported as 4.3.
